The source made the active and inactive calls. The rule behind the calls is not given here.
Assays:
[1] = Metabolic stability in rat liver microsomes assessed as intrinsic clearance at 1 uM incubated for 60 mins by LC-MS/MS analysis; format: ADME, Microsome; settings: read-out: CLH
[2] = biological target: Cytochrome P450 2C9 (Homo sapiens, UniProt P11712); test: Inhibition of CYP2C9 in human liver microsomes in presence of NADPH by LC-MS/MS analysis; format: ADME, Microsome
[3] = biological target: Cytochrome P450 3A4 (Homo sapiens, UniProt P08684); test: Inhibition of CYP3A4 in human liver microsomes in presence of NADPH by LC-MS/MS analysis; format: ADME, Microsome
[4] = AUClast in male mouse at 10 mg/kg, IG measured after 24 hrs; format: ADME, organism-based; settings: in vivo, po
[5] = Ratio of drug concentration in male Sprague-Dawley rat brain to plasma at 5 mg/kg, IG measured after 6 hrs by LC-MS/MS analysis; format: ADME, organism-based; settings: brain and plasma, po, read-out: BPR
[6] = tested on: Mus musculus; test: Antipsychotic activity against MK-801 induced hypermobilization in male C57BL/6J mouse model assessed as reduction in hypermobilization state at 3 mg/kg, IG pretreated with compound followed by MK-801 addition and measured after 30 mins by open field test; format: functional, organism-based
[7] = tested on: Mus musculus; test: Antipsychotic activity against methamphetamine-induced hyperlocomotion in male C57BL/6J mouse model assessed as reduction in hyperlocomotive state at 10 mg/kg, IG pretreated with compound followed by methamphetamine addition and measured after 30 mins by open field test; format: functional, organism-based
[8] = tested on: Mus musculus; test: Antipsychotic activity against DOI-induced head-twitch response in mouse assessed as reduction in head-twitch response administered intragastrically and measured for 30 mins; format: functional, organism-based; settings: dose 1-10 mg/kg
[9] = tested on: Mus musculus; test: Antipsychotic activity against DOI-induced head-twitch response in mouse assessed as reduction in head-twitch response at 10 mg/kg, IG measured for 30 mins relative to control; format: functional; parameters: scale not given: the % may be the effect or the level left; settings: 0.5 h
[10] = tested on: Mus musculus; test: Antipsychotic activity in amyloid beta(1 to 42) induced cognitive impairment in mouse model assessed as reduction in exploration time at 1 mg/kg, IG measured after 24 hrs by novel object recognition test; format: functional, organism-based
[11] = biological target: Trace amine-associated receptor 1 (Mus musculus, UniProt Q923Y8); test: Agonist activity at mouse TAAR1; format: functional
[12] = biological target: Trace amine-associated receptor 1 (Mus musculus) (UniProt Q923Y8); test: Agonist activity at mouse TAAR1 by measuring maximum efficacy relative to control; format: functional; settings: filed as agonist
[13] = biological target: Trace amine-associated receptor 1 (Rattus norvegicus, UniProt Q923Y9); test: Agonist activity at rat TAAR1; format: functional
[14] = biological target: 5-hydroxytryptamine receptor 2C (Rattus norvegicus) (UniProt P08909); test: Agonist activity at rat 5-HT2CR by measuring maximum efficacy relative to control; format: functional; settings: filed as agonist
[15] = biological target: 5-hydroxytryptamine receptor 1A (Homo sapiens, UniProt P08908); test: Agonist activity at human 5-HT1A expressed in CHO cells coexpressing Galpha15 by FLIPR calcium assay; format: functional, cell-based
[16] = biological target: D(2) dopamine receptor (Homo sapiens, UniProt P14416); test: Antagonist activity at human D2L receptor expressed in Flp-In-CHO cells; format: cell-based
[17] = biological target: Adenosine receptor A2a (Homo sapiens) (UniProt P29274); test: Binding affinity to ADORA2A (unknown origin) at 10 uM by radioligand binding assay relative to control
[18] = biological target: Alpha-1A adrenergic receptor (Homo sapiens) (UniProt P35348); test: Binding affinity to alpha 1A (unknown origin) at 10 uM by radioligand binding assay relative to control
[19] = biological target: Histamine H1 receptor (Homo sapiens) (UniProt P35367); test: Binding affinity to H1 receptor (unknown origin) at 10 uM by radioligand binding assay relative to control
[20] = biological target: cGMP-inhibited 3',5'-cyclic phosphodiesterase 3A (Homo sapiens) (UniProt Q14432); test: Binding affinity to PDE3A receptor (unknown origin) at 10 uM by radioligand binding assay relative to control
[21] = Mutagenicity in Salmonella typhimurium TA97a by Ames test; format: toxicity; settings: salmonella enterica subsp. enterica serovar typhimurium
[22] = Cardiotoxicity in conscious cynomolgus monkey assessed as change in diastolic pressure at 3.125 to 12.5 mg/kg, IG measured within 25 hrs; format: toxicity, organism-based, Macaca fascicularis; settings: in vivo, po, dose 3.125-12.5 mg/kg
[23] = Toxicity in Sprague-Dawley rat assessed as good general health at 2.5 to 7.5 mg/kg, po administered once daily for 4 weeks; format: organism-based; settings: in vivo, 672 h, dose 2.5-7.5 mg/kg
[24] = Toxicity in male Sprague-Dawley rat assessed as suppression of body weight gain at 7.5 mg/kg, po administered once daily for 4 weeks and measured weekly twice; format: organism-based; settings: in vivo, 672 h
[25] = Toxicity in female Sprague-Dawley rat assessed as suppression of food consumption at 7.5 mg/kg, po administered once daily for 4 weeks and measured after 4 weeks; format: organism-based; settings: in vivo, 1344 h, time 8 weeks
[26] = Toxicity in female Sprague-Dawley rat assessed as change in prolactin level at 2.5 to 7.5 mg/kg, po administered once daily for 4 weeks and measured after 4 weeks; format: organism-based; settings: in vivo, 1344 h, dose 2.5-7.5 mg/kg, time 8 weeks
[27] = Toxicity in male Sprague-Dawley rat assessed as change in blood glucose level at 2.5 to 7.5 mg/kg, po administered once daily for 4 weeks and measured after 4 weeks; format: organism-based; settings: in vivo, 1344 h, dose 2.5-7.5 mg/kg, time 8 weeks
[28] = Toxicity in female Sprague-Dawley rat assessed as piloerection at 7.5 mg/kg, po administered once daily for 4 weeks; format: organism-based; settings: in vivo, 672 h
[29] = Toxicity in female Sprague-Dawley rat assessed as change in hematology at 2.5 to 7.5 mg/kg, po administered once daily for 4 weeks and measured after 4 weeks; format: organism-based; settings: in vivo, 1344 h, dose 2.5-7.5 mg/kg, time 8 weeks
[30] = Toxicity in female Sprague-Dawley rat assessed as change in urinalysis at 2.5 to 7.5 mg/kg, po administered once daily for 4 weeks and measured after 4 weeks; format: organism-based; settings: in vivo, 1344 h, dose 2.5-7.5 mg/kg, time 8 weeks
[31] = Toxicity in female Sprague-Dawley rat assessed as minimal corneal neovascularization at 2.5 to 7.5 mg/kg, po administered once daily for 4 weeks and measured after 4 weeks; format: organism-based; settings: in vivo, 1344 h, dose 2.5-7.5 mg/kg, time 8 weeks
[32] = Toxicity in male Sprague-Dawley rat assessed as corneal epithelial degeneration at 2.5 to 7.5 mg/kg, po administered once daily for 4 weeks and measured after 4 weeks; format: organism-based; settings: in vivo, 1344 h, dose 2.5-7.5 mg/kg, time 8 weeks
[33] = Toxicity in male Beagle dog assessed as change in food consumption at 0.75 to 2.5 mg/kg, IG administered once daily for 4 weeks and measured after 4 weeks; format: organism-based, Canis lupus familiaris; settings: in vivo, po, 1344 h, dose 0.75-2.5 mg/kg, time 8 weeks
[34] = Toxicity in male Beagle dog assessed as change in blood pressure at 0.75 to 2.5 mg/kg, IG administered once daily for 4 weeks and measured after 4 weeks; format: organism-based, Canis lupus familiaris; settings: in vivo, po, 1344 h, dose 0.75-2.5 mg/kg, time 8 weeks
[35] = Toxicity in female Beagle dog assessed as change in body temperature at 0.75 to 2.5 mg/kg, IG administered once daily for 4 weeks and measured after 4 weeks; format: organism-based, Canis lupus familiaris; settings: in vivo, po, 1344 h, dose 0.75-2.5 mg/kg, time 8 weeks
[36] = Toxicity in female Beagle dog assessed as change in bone marrow smears at 0.75 to 2.5 mg/kg, IG administered once daily for 4 weeks and measured after 4 weeks; format: organism-based, Canis lupus familiaris; settings: in vivo, po, 1344 h, dose 0.75-2.5 mg/kg, time 8 weeks
[37] = Toxicity in male Beagle dog assessed as minimal decrease activity at 2.5 mg/kg, IG administered once daily for 4 weeks; format: organism-based, Canis lupus familiaris; settings: in vivo, po, 672 h

Sequence of 5-hydroxytryptamine receptor 2C (Rattus norvegicus) (P08909 whole entry): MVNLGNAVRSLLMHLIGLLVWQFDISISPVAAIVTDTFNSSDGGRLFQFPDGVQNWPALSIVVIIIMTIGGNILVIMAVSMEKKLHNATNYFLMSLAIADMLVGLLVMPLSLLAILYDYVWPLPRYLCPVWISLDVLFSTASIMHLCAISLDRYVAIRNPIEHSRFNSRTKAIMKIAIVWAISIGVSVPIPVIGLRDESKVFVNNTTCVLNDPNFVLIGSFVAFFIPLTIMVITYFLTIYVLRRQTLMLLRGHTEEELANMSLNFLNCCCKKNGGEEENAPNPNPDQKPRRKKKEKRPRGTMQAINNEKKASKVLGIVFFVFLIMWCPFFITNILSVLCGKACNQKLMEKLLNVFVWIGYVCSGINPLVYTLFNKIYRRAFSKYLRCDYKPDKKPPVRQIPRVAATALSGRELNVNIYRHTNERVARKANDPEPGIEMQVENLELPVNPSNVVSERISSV
Sequence of Cytochrome P450 3A4 (P08684 whole entry): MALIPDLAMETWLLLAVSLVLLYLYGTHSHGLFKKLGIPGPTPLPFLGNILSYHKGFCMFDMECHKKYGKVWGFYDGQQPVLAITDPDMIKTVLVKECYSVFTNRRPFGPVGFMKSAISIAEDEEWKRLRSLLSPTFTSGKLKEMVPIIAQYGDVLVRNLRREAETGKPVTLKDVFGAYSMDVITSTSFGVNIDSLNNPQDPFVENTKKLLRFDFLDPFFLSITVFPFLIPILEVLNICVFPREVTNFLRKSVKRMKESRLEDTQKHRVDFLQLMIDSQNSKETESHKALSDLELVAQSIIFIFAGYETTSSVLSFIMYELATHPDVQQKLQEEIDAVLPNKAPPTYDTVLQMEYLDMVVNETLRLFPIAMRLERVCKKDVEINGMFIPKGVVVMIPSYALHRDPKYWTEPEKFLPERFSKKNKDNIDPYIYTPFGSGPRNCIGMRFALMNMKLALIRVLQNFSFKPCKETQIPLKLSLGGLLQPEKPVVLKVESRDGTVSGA
Sequence of Trace amine-associated receptor 1 (Rattus norvegicus, UniProt Q923Y9) (Q923Y9 whole entry): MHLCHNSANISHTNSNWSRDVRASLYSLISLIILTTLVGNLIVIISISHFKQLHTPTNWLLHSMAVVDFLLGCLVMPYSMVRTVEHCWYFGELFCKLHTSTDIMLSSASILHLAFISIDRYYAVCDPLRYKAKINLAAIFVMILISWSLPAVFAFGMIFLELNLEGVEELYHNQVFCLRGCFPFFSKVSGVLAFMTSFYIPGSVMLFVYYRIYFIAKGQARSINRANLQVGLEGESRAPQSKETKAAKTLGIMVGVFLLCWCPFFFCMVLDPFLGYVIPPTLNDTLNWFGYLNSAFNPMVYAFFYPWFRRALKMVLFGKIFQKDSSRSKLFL
Sequence of Alpha-1A adrenergic receptor (Homo sapiens) (P35348 whole entry): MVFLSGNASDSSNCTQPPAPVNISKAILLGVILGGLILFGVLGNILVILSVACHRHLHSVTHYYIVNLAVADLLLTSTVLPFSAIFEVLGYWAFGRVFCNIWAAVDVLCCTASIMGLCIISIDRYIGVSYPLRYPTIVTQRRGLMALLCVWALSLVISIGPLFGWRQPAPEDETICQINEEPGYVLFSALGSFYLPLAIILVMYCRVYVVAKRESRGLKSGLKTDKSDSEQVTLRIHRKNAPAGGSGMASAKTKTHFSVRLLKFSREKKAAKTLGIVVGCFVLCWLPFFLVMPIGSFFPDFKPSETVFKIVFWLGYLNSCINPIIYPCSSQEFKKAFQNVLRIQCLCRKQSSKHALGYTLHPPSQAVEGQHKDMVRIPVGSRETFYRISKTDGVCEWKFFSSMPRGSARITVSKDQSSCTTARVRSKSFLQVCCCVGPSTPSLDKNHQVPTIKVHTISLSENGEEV
Sequence of D(2) dopamine receptor (P14416 whole entry): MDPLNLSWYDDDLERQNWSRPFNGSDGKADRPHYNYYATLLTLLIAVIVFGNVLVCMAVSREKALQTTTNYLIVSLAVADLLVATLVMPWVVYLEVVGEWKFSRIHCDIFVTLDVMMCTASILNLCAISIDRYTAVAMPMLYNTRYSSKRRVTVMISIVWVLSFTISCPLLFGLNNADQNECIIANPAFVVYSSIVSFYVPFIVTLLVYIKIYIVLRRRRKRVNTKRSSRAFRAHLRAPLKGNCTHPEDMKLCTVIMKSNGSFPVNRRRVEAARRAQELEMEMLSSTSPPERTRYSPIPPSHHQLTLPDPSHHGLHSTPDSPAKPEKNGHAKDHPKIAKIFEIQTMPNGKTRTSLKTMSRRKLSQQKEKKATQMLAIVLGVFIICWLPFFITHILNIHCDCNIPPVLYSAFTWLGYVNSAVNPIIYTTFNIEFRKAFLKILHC
Sequence of cGMP-inhibited 3',5'-cyclic phosphodiesterase 3A (Homo sapiens) (Q14432 whole entry): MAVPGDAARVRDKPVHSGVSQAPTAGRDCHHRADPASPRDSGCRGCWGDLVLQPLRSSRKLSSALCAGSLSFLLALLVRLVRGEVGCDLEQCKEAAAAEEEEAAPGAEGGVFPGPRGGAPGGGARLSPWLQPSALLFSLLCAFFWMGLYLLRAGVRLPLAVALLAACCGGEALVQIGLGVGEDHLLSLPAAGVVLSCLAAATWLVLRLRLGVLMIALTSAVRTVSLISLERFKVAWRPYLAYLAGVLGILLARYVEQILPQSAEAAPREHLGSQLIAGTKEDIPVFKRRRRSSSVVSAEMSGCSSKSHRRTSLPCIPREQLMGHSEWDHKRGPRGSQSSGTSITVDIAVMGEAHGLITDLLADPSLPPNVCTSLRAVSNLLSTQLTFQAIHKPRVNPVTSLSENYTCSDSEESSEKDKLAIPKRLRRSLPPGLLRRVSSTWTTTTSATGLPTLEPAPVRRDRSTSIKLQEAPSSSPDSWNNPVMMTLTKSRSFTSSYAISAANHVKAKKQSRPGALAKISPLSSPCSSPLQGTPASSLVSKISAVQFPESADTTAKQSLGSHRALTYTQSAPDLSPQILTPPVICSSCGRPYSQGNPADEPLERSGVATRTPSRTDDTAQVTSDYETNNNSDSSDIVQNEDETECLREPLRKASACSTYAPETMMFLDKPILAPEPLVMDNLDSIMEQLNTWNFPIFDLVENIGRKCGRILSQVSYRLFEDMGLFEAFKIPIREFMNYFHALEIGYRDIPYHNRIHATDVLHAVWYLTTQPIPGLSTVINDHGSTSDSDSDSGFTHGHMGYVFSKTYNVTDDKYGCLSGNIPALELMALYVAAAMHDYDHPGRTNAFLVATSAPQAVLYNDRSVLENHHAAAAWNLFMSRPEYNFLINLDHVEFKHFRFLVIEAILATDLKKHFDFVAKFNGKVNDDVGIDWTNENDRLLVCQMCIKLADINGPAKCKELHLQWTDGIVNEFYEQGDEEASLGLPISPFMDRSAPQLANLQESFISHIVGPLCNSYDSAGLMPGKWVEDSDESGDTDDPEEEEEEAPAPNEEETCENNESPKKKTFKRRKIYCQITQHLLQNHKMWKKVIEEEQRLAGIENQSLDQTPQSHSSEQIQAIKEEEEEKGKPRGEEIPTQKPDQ
Sequence of 5-hydroxytryptamine receptor 1A (P08908 whole entry): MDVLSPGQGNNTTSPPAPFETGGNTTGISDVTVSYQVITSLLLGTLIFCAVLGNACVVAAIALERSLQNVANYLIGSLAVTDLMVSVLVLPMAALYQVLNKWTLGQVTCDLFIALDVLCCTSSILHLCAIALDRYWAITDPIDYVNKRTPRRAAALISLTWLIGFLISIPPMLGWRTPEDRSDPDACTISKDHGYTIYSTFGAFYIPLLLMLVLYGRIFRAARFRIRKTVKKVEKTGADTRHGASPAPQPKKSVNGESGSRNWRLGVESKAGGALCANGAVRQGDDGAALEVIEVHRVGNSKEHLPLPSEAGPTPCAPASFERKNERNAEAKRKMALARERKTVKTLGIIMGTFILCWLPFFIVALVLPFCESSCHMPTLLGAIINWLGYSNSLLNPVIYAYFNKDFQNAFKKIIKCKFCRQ
Sequence of Histamine H1 receptor (Homo sapiens) (P35367 whole entry): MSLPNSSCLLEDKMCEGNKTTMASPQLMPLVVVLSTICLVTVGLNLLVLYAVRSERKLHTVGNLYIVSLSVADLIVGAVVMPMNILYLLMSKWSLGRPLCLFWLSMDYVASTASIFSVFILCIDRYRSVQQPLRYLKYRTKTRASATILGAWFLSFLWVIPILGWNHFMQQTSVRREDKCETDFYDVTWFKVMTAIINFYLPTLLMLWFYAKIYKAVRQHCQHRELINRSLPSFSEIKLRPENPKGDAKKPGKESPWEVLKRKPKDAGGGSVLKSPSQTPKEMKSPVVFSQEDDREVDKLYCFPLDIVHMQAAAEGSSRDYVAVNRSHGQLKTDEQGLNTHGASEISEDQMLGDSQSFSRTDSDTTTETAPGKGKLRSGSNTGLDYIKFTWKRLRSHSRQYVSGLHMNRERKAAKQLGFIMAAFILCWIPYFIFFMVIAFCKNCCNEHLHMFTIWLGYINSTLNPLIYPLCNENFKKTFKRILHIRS
Sequence of Cytochrome P450 2C9 (P11712 whole entry): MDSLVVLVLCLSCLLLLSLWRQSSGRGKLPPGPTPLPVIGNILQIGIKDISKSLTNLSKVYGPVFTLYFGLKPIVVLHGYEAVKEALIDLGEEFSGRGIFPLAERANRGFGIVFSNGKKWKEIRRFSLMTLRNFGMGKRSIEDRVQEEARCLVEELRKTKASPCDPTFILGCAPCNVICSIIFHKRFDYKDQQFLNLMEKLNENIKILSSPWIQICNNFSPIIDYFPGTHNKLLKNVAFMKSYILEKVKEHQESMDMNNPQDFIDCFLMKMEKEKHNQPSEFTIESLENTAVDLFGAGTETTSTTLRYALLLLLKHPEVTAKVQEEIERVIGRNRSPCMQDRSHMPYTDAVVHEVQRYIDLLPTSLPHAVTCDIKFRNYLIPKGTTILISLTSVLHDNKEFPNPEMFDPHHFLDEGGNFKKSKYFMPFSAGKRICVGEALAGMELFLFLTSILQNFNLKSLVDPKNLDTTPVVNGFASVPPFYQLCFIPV

Work on c1cc2c(s1)[C@@H]1CNCCN1CC2 yielded a CLint scaled at 1 µM [1] of less than 13.5 mL/min/kg, an IC50 [2] greater than 50 µM and an IC50 [3] greater than 50 µM. The AUC(0-t) at 24 h [4] was 21.6 µM·h, the Kp at 6 h [5] was 4.22 and the Activity [6] was “Active; More Effective Than Ulotaront”. For the same compound, the Activity [7] was “Active”, the Activity [8] was “Dose-dependent-effect” and the Activity [9] was 100%. For the same compound, the Activity [10] was “Active”, the EC50 [11] was 0.0723 µM and the Emax [12] was 100%. It also gave an EC50 [13] of 0.682 µM, an Emax [14] of 108% and an EC50 [15] of 31.5 µM. The IC50 [16] was greater than 100 µM, the Activity [17] was -1.11% and the Activity [18] was 55%. For the same compound, the Activity [19] was 6.65%, the Activity [20] was 3.89% and the Activity [21] was “Non-toxic”. For the same compound, the Activity [22] was “Non-toxic”, the Activity [23] was “Non-toxic” and the Activity [24] was “Toxic”. The Activity [25] was “Non-toxic”, the Activity [26] was “Non-toxic” and the Activity [27] was “Non-toxic”. For the same compound, the Activity [28] was “Toxic”, the Activity [29] was “Non-toxic” and the Activity [30] was “Non-toxic”. The Activity [31] was “Non-toxic”, the Activity [32] was “Non-toxic” and the Activity [33] was “Non-toxic”. For the same compound, the Activity [34] was “Non-toxic”, the Activity [35] was “Non-toxic” and the Activity [36] was “Non-toxic”. The Activity [37] was “Toxic”.
